# From patent US20150284375A1 (AJINOMOTO CO., INC., priority 2012, published 2015)
# Like-named read-outs stand apart in the source and are kept apart here.
# Target: T1, human TRPA1 (Homo sapiens, UniProt O75762)
# T1 construct: expressed in transfected cells; host or cells: Human embryonic kidney-derived 293T cells, transiently transfected with the pcDNA3.1/zeo(+) human TRPA1 plasmid
# Test: Measurement of TRPA1 antagonist activity (intracellular calcium increase, FLIPR, allylisothiocyanate stimulation)
# Format: cell-based
# Settings: read-out: antagonism hTRPA1
# From the text: Measurement of TRPA1 Antagonist Activity
# Human TRPA1 Expression Plasmid
# As cDNA encoding human TRPA1 (GenBank accession No. […]), a commercially available product was purchased (manufactured by Kazusa DNA Research Institute, clone No.: pFN21AB7348, item No.: FHC07217). Using this as a template, full-length human TRPA1 gene was amplified using the primer sequences shown below, by reaction using DNA polymerase (manufactured by Stratagene, trade name: PfuUltra High-Fidelity DNA Polymerase).
# A recognition site (underlined) of restriction enzyme HindIII was added to the 5′ side, and XbaI site (underlined) was added to the 3′ side, and GTT of the template sequence was changed to termination codon TAG (bold). The obtained double stranded DNA was enzyme-digested with HindIII and XbaI, and introduced into a multicloning site of expression plasmid pcDNA3.1/zeo(+) (manufactured by Invitrogen) to give a human TRPA1 expression plasmid.
# Human embryonic kidney-derived 293T cells were cultured in Dulbecco's Modified Eagle Medium containing 10% fetal bovine serum, 10 unit penicillin, and 10 μg streptomycin, plated on a petri dish having a diameter of 10 cm at 3×10^6 cells, and cultured for 24 hr. A medium containing a reduced amount of serum (manufactured by Invitrogen, trade name: OPTI-MEM, 600 μL), a gene insertion reagent (manufactured by Mirus Bio, trade name: Mirus TransIT-293, 18 μL), and human TRPA1 expression plasmid (6 μg) were mixed, the total amount of the mixture was added to the cells on the petri dish to allow for gene transfer. The cells were recovered about 8 hr later, plated on a poly-D-lysine coated 384 well black/clear bottom plate at 7,500-12,000 cells/well, and cultured overnight.
# Measurement of Intracellular Calcium Increase
# The 384 well plate was recovered, and the medium was removed. A calcium-bonded fluorescent indicator (manufactured by Molecular Device, trade name: Calcium4 Assay Kit, 40 μL) dissolved in assay buffer (1×HBSS, 20 mM HEPES, pH 7.2) was added, and the cells were stained in a 37° C. incubator for 1 hr. The cells were taken out at room temperature and left standing for 15 min or more. A test substance (10 μL) was added by a 384 well type dispenser, and the mixture was incubated at room temperature for 10 min. Then, allylisothiocyanate (12.5 μL) at a final concentration of 20 μM was added by a fluorescence imaging plate reader (manufactured by Molecular Device, FLIPR), and changes in the relative fluorescence intensity were measured for 5 min.
# Test Substance Preparation
# The test substance was dissolved in dimethyl sulfoxide and serially diluted with an assay buffer containing 0.1% bovine serum albumin (1×HBSS, 20 mM HEPES, pH 7.2) to a 5-fold concentration of the evaluation concentration. Allylisothiocyanate, which is a known TRPA1 activator, was dissolved in dimethyl sulfoxide to 100 mM, and further diluted 5-fold (100 μM) of the final concentration, like the test substance.
# Calculation of Antagonist Activity
# Under the test substance-free conditions, the maximum variation range of the fluorescence intensity before and after allylisothiocyanate stimulation was defined to be 100% activity rate, and the variation range before and after buffer stimulation was defined as 0% activity rate. The activity rate on addition of the test substance was determined, and the numerical value obtained by subtracting the activity rate from 100 was defined to be an inhibitory rate. 1050, which is the concentration of the test substance necessary for reaching the 50% inhibitory rate, was calculated from the sigmoid approximate curve by a spreadsheet software Excel-Fit.
# [1] = 293T cells transfected with human TRPA1, allylisothiocyanate 20 μM, concentration for 50% inhibitory rate
# [2] = allylisothiocyanate 20 μM stimulation, FLIPR calcium assay
# T1 sequence (O75762 whole entry): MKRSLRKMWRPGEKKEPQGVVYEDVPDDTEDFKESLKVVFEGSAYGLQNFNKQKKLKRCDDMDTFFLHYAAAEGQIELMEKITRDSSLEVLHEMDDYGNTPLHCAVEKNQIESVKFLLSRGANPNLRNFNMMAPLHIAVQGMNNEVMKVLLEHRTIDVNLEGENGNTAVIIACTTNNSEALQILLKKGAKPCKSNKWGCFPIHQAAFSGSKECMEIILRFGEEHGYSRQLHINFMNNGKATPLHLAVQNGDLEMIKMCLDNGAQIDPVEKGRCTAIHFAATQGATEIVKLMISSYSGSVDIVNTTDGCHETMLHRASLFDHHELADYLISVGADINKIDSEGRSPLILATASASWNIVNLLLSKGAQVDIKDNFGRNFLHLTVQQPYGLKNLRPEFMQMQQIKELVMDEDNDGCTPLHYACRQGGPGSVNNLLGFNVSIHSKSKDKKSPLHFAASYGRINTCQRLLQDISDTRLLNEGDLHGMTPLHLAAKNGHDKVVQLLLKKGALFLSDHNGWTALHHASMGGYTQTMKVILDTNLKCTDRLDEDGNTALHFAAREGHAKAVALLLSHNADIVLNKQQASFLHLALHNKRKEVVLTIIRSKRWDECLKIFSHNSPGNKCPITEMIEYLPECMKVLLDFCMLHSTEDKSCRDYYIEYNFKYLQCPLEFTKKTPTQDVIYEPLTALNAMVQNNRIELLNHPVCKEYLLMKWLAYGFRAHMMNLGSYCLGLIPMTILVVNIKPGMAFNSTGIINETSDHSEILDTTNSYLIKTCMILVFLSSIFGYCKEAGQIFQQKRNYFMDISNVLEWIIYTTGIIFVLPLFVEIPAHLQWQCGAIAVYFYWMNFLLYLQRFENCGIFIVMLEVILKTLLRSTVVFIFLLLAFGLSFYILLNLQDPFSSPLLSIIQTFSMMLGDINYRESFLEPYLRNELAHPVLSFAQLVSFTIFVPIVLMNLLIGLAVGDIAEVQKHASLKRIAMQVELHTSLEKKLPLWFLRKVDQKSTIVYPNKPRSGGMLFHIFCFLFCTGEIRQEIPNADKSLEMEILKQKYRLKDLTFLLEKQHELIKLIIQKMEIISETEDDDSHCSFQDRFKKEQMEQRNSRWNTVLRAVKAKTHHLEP
IC50 [1] [nM],IC50 [2] [nM],Structure (SMILES)
66,,"O=C(NCc1cc(Oc2ccc(C(F)(F)F)cc2)ccn1)[C@@H]1CCCN1S(=O)(=O)c1ccc(Cl)s1 [Example 40, (2S)-1-(5-chlorothiophene-2-sulfonyl)-N-({4-[4-(trifluoro-methyl)phenoxy]-2-pyridyl}methyl)pyrrolidine-2-carboxamide]"
,140,"O=C(NCc1cccc(OCc2cccc(C(F)(F)F)n2)c1)[C@@H]1CCCN1S(=O)(=O)c1ccc(F)cc1 [Example 136, (2S)-1-(4-fluorophenyl)sulfonyl-N-[[3-[[6-(trifluoromethyl)-2-pyridyl]methoxy]phenyl]methyl]pyrrolidine-2-carboxamide]"
7000,,O=C(NCc1ccc(COc2ccccc2)cc1)[C@@H]1CCCN1S(=O)(=O)c1cccs1 [Example 86]
130,,"O=C(NCc1ccc(Oc2cccc(C(F)(F)F)c2)c(F)c1)[C@@H]1CCCN1S(=O)(=O)c1ccc(Cl)s1 [Example 25, (2S)-1-(5-chlorothiophene-2-sulfonyl)-N-({3-fluoro-4-[3-(trifluoro-methyl)phenoxy]phenyl}methyl)pyrrolidine-2-carboxamide]"
2200,,O=C(NCc1ccccc1COc1ccccc1)[C@@H]1CCCN1S(=O)(=O)c1ccc(Cl)s1 [Example 79]
12,,O=C(NCc1cccc(OCc2ccc(F)cc2)c1)[C@@H]1CCCN1S(=O)(=O)c1ccc(Cl)s1 [Example 99]
56,,"O=C(NCc1cccc(Oc2cccc(F)c2)c1)[C@@H]1CCCN1S(=O)(=O)c1ccc(Cl)s1 [Example 22, (2S)-1-(5-chlorothiophene-2-sulfonyl)-N-{[3-(3-fluoro-phenoxy)phenyl]methyl}pyrrolidine-2-carboxamide]"
14,,"O=C(NCc1cccc(OCc2ccccc2)c1)[C@@H]1C=CCN1S(=O)(=O)c1ccc(Cl)s1 [Example 107, (2S)—N-[(3-benzyloxyphenyl)methyl]-1-(5-chlorothiophene-2-sulfonyl)-2,5-dihydropyrrole-2-carboxamide]"
,110,"O=C(NCc1cccc(OCc2ccc(C(F)(F)F)cc2)c1)[C@@H]1CC(F)(F)CN1S(=O)(=O)c1ccc(F)cc1 [Example 166, (2S)-4,4-difluoro-1-(4-fluorophenyl)sulfonyl-N-[[3-[[4-(trifluoromethyl)phenyl]methoxy]phenyl]methyl]pyrrolidine-2-carboxamide]"
,450,"O=C(NCc1cccc(OCc2ccc(C(F)(F)F)cc2)c1)[C@@H]1C[C@H](F)CN1S(=O)(=O)c1ccc(F)cc1 [Example 164, (2S,4S)-4-fluoro-1-(4-fluorophenyl)sulfonyl-N-[[3-[[4-(trifluoromethyl)phenyl]methoxy]phenyl]methyl]pyrrolidine-2-carboxamide]"
,89,"O=C(NCc1cccc(OCc2ccsc2)c1)[C@@H]1CCCN1S(=O)(=O)c1ccc(F)cc1 [Example 141, (2S)-1-(4-fluorophenyl)sulfonyl-N-[[3-(3-thienylmethoxy)phenyl]methyl]pyrrolidine-2-carboxamide]"
,290,"O=C(NCc1ccc(Oc2cccc(C(F)(F)F)c2)cc1)[C@@H]1C=CCN1S(=O)(=O)c1ccc(F)cc1 [Example 151, (2S)-1-(4-fluorophenyl)sulfonyl-N-[[4-[3-(trifluoromethyl)phenoxy]phenyl]methyl]-2,5-dihydropyrrole-2-carboxamide]"
8.9,,O=C(NCc1cccc(OCc2cccc(C(F)(F)F)c2)c1)[C@@H]1CCCN1S(=O)(=O)c1ccc(Cl)s1 [Example 100]
,5700,"O=C(NCc1ccc(Oc2ccnc(C(F)(F)F)c2)cc1)[C@@H]1CCCN1S(=O)(=O)c1ccco1 [Example 155, (2S)-1-(2-furylsulfonyl)-N-[[4-[[2-(trifluoromethyl)-4-pyridyl]oxy]phenyl]methyl]pyrrolidine-2-carboxamide]"
,1700,"COc1cccc(S(=O)(=O)N2CCC[C@H]2C(=O)NCc2cccc(OCc3ccc(C(F)(F)F)cc3)c2)c1 [Example 197, (2S)-1-(3-methoxyphenyl)sulfonyl-N-[[3-[[4-(trifluoromethyl)phenyl]methoxy]phenyl]methyl]pyrrolidine-2-carboxamide]"
,96,"O=C(NCc1cccc(Oc2ccc(C(F)(F)F)cc2)c1)[C@@H]1CCCN1S(=O)(=O)c1ccoc1 [Example 162, (2S)-1-(3-furylsulfonyl)-N-[[3-[4-(trifluoromethyl)phenoxy]phenyl]methyl]pyrrolidine-2-carboxamide]"
71,,O=C(NCc1cccc(OCc2ccc(C(F)(F)F)cc2)c1)[C@@H]1CCCN1S(=O)(=O)c1ccc(Cl)cc1 [Example 113]
,31,"O=C(NCc1cccc(OCc2ccc(F)cc2)c1)[C@@H]1CCCN1S(=O)(=O)c1ccc(F)cc1 [Example 121, (2S)-N-[[3-[(4-fluorophenyl)methoxy]phenyl]methyl]-1-(4-fluorophenyl)sulfonyl-pyrrolidine-2-carboxamide]"
1800,,O=C(NCc1ccc(COc2cc3ccccc3cn2)cc1)[C@@H]1CCCN1S(=O)(=O)c1ccc(Cl)s1 [Example 69]
,640,"COc1ccc(S(=O)(=O)N2CCC[C@H]2C(=O)NCc2cccc(OCc3ccc(C(F)(F)F)cc3)c2)cc1 [Example 196, (2S)-1-(4-methoxyphenyl)sulfonyl-N-[[3-[[4-(trifluoromethyl)phenyl]methoxy]phenyl]methyl]pyrrolidine-2-carboxamide]"
,6200,"O=C(NCc1cccc(OCc2ccc(C(F)(F)F)cc2)c1)[C@@H]1CCCN1S(=O)(=O)c1cccc2nonc12 [Example 212, (2S)-1-(2,1,3-benzoxadiazol-4-ylsulfonyl)-N-[[3-[[4-(trifluoromethyl)phenyl]methoxy]phenyl]methyl]pyrrolidine-2-carboxamide]"
180,,"O=C(NCc1ccc(Oc2ccnc(Cl)c2)cc1)[C@@H]1CCCN1S(=O)(=O)c1ccc(Cl)s1 [Example 13, (2S)-N-({4-[(2-chloro-4-pyridyl)oxy]phenyl}methyl)-1-(5-chlorothiophene-2-sulfonyl)pyrrolidine-2-carboxamide]"
,270,"N#Cc1ccc(Oc2cccc(CNC(=O)[C@@H]3CCCN3S(=O)(=O)c3ccc(F)cc3)c2)cc1 [Example 118, (2S)-N-[[3-(4-cyanophenoxy)phenyl]methyl]-1-(4-fluorophenyl)sulfonyl-pyrrolidine-2-carboxamide]"
,49,"O=C(NCc1cccc(OCc2ccc(C(F)(F)F)cc2)c1)[C@@H]1CCCN1S(=O)(=O)c1cccc(F)c1 [Example 192, (2S)-1-(3-fluorophenyl)sulfonyl-N-[[3-[[4-(trifluoromethyl)phenyl]methoxy]phenyl]methyl]pyrrolidine-2-carboxamide]"
,57,"O=C(NCc1cccc(Oc2ccc(C(F)(F)F)cc2)c1)[C@@H]1C=CCN1S(=O)(=O)c1ccsc1 [Example 161, (2S)-1-(3-thienylsulfonyl)-N-[[3-[4-(trifluoromethyl)phenoxy]phenyl]methyl]-2,5-dihydropyrrole-2-carboxamide]"
140,,"O=C(NCc1ccc(Oc2cccc(C(F)(F)F)c2)c(Cl)c1)[C@@H]1CCCN1S(=O)(=O)c1ccc(Cl)s1 [Example 24, (2S)-1-(5-chlorothiophene-2-sulfonyl)-N-({3-chloro-4-[3-(trifluoro-methyl)phenoxy]phenyl}methyl)pyrrolidine-2-carboxamide]"
4200,,O=C(NCc1ccc(OCc2cccc(C(F)(F)F)c2)cc1)[C@@H]1CCCN1S(=O)(=O)c1ccc(Cl)s1 [Example 93]
230,,O=C(NCc1cccc(OCc2ccc(C(F)(F)F)cc2)c1)[C@@H]1CCN1S(=O)(=O)c1ccc(F)cc1 [Example 112]
